Results: the Kinase Knowledgebase extract (Sharma et al. 2016)

Tests used:
[1] = test system: EGFR (Human), P00533 [Assessment of Proliferation in EGFR DelE746_A750 Mutant Expressing HCC827 Cells]
[2] = test system: EGFR (Human), P00533 [T790M/L858R]; settings: nci-h1975
Chain of EGFR (Human), P00533 [T790M/L858R] (P00533 whole entry T790M/L858R, looked up): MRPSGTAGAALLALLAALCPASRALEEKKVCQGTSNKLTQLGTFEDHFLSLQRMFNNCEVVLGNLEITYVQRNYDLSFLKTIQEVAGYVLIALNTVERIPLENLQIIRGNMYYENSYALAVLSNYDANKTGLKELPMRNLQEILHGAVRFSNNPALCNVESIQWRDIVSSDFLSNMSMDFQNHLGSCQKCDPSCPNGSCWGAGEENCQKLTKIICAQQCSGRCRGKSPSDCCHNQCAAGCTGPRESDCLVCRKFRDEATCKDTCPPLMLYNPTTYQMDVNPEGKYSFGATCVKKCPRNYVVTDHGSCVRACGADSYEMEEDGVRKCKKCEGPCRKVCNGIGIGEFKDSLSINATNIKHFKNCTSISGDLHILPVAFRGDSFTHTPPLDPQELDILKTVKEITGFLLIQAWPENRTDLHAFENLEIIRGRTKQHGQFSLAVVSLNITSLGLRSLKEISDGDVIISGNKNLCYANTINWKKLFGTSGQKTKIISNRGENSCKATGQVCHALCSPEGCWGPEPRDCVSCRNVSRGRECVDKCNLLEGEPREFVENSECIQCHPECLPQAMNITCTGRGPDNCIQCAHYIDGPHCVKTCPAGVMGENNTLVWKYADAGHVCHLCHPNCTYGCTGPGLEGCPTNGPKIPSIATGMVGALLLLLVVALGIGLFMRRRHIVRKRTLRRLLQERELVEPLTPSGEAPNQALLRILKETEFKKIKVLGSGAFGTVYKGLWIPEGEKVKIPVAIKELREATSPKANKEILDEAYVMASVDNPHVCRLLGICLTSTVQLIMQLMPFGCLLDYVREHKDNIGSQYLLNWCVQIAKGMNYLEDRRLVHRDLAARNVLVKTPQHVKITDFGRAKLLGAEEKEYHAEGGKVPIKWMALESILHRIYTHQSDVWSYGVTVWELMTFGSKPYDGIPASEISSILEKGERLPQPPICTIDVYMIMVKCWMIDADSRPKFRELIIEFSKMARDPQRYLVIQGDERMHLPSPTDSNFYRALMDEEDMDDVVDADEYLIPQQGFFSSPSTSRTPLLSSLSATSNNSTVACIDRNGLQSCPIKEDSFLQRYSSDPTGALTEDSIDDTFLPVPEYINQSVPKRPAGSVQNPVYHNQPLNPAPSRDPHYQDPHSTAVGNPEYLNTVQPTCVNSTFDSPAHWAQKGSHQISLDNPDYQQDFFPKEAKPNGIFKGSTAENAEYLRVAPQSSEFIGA

Chain of EGFR (Human), P00533 [Assessment of Proliferation in EGFR DelE746_A750 Mutant Expressing HCC827 Cells] (P00533 whole entry, looked up, stated change not applied): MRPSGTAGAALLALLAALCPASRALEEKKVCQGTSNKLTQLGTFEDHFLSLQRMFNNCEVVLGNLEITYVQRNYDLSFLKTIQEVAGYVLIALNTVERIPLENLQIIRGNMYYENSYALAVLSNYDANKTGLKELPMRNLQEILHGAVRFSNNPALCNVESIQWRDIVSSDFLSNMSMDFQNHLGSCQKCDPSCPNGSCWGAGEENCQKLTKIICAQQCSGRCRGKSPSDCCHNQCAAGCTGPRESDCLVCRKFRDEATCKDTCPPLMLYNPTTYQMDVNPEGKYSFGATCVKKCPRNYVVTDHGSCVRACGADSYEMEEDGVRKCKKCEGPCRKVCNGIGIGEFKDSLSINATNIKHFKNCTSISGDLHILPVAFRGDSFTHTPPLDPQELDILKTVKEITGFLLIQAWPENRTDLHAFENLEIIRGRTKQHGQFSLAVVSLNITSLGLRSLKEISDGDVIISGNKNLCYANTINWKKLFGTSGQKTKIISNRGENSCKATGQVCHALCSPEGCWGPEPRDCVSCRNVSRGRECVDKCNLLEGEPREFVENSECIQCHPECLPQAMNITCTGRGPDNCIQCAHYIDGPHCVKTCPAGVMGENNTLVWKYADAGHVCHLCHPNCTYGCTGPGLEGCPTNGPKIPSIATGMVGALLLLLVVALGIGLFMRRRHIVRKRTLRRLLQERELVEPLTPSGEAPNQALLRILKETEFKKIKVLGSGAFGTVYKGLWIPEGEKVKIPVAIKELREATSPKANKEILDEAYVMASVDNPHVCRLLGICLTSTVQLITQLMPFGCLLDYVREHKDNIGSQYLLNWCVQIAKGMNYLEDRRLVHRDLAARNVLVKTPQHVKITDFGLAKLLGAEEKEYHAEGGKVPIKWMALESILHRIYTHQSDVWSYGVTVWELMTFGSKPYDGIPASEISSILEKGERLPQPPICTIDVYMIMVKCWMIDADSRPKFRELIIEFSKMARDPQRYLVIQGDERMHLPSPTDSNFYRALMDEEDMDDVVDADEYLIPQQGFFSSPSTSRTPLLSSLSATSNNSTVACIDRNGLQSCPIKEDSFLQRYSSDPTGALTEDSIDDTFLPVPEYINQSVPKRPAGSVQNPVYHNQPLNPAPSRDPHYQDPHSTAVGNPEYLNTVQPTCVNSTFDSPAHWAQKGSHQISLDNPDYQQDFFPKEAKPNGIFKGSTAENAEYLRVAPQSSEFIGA

SMILES | GI50 [1] | GI50 [2]
C=CC(=O)Nc1cccc(Oc2nc(Nc3ccc(OCCN4CCOCC4)cc3)nc3ccsc23)c1 | ≤ 50 nM | ≤ 50 nM
C=CC(=O)Nc1cccc(Oc2nc(Nc3ccc(N4CCN(CCO)CC4)cn3)nc3ccsc23)c1 | ≤ 50 nM | 50 to 100 nM
C=CC(=O)Nc1ccc(F)c(Oc2nc(Nc3ccc(N4CCN(C)CC4)cc3)nc3ccsc23)c1 | ≤ 50 nM | ≤ 50 nM
C=CC(=O)Nc1cccc(Oc2nc(Nc3ccc(N4CCC(N5CCOCC5)CC4)cc3)nc3ccsc23)c1 | ≤ 50 nM | ≤ 50 nM
C=CC(=O)Nc1cccc(Oc2nc(Nc3ccc(C4CCN(C)CC4)cc3OC)nc3ccsc23)c1 | 50 to 100 nM | ≤ 50 nM
C=CC(=O)Nc1cccc(Oc2nc(Nc3ccc(N4CCN(C)CC4)c(C)c3)nc3ccsc23)c1 | ≤ 50 nM | ≤ 50 nM
C=CC(=O)Nc1cccc(Oc2nc(Nc3ccc(N4CC(C)N(C)C(C)C4)cc3)nc3ccsc23)c1 (centres undefined) | ≤ 50 nM | ≤ 50 nM
C=CC(=O)Nc1cccc(Oc2nc(Nc3ccc(C(C)N4CCN(CC)CC4)cc3)nc3ccsc23)c1 (centres undefined) | ≤ 50 nM | ≤ 50 nM
C=CC(=O)Nc1cccc(Oc2nc(Nc3ccc(N4CC[S+]([O-])CC4)cc3)nc3ccsc23)c1 | ≤ 50 nM | ≤ 50 nM
C=CC(=O)Nc1cccc(Nc2nc(Nc3ccc(CN(C)C)cc3)nc3ccsc23)c1 | ≤ 50 nM | ≤ 50 nM
C=CC(=O)Nc1cccc(Oc2nc(Nc3ccc(N4CCN(C(C)(C)C)CC4)cc3)nc3ccsc23)c1 | ≤ 50 nM | ≤ 50 nM
C=CC(=O)Nc1cccc(Oc2nc(Nc3ccc(N4CCC(CN5CCCCC5)CC4)cc3)nc3ccsc23)c1 | ≤ 50 nM | ≤ 50 nM
C=CC(=O)Nc1cccc(Oc2nc(Nc3ccc(CN4CCC(N(C)C)CC4)c(F)c3)nc3ccsc23)c1 | ≤ 50 nM | 50 to 100 nM
C=CC(=O)Nc1cccc(Oc2nc(Nc3ccc(CN4CCC(N(C)C)CC4)cc3)nc3ccsc23)c1 | ≤ 50 nM | ≤ 50 nM
C=CC(=O)Nc1cccc(Sc2nc(Nc3ccc(N4CCOCC4)c(F)c3)nc3ccsc23)c1 | ≤ 50 nM | ≤ 50 nM
C=CC(=O)Nc1cccc(Oc2nc(Nc3ccc(C(=O)NC)cc3)nc3ccsc23)c1 | 50 to 100 nM | 50 to 100 nM
C=CC(=O)Nc1cccc(Oc2nc(Nc3ccc(C4CCN(C)CC4)cc3)nc3ccsc23)c1 | ≤ 50 nM | ≤ 50 nM
C=CC(=O)Nc1cccc(Oc2nc(Nc3ccc(CN4CCC(N(C)C)CC4)cc3)nc3ccoc23)c1 | 50 to 100 nM | 50 to 100 nM
C=CC(=O)Nc1cccc(Oc2nc(Nc3ccc(CS(C)(=O)=O)cc3)nc3ccsc23)c1 | ≤ 50 nM | ≤ 50 nM
C=CC(=O)Nc1cccc(Oc2nc(Nc3ccc(CN(CC)CC)cc3)nc3ccsc23)c1 | ≤ 50 nM | ≤ 50 nM
C=CC(=O)Nc1cccc(Oc2nc(Nc3ccc(N4CCN(CCOC)CC4)cc3)nc3ccsc23)c1 | ≤ 50 nM | ≤ 50 nM
C=CC(=O)Nc1cccc(Nc2nc(Nc3ccc(CN4CCCCC4)cc3OC)nc3ccsc23)c1 | 50 to 100 nM | 50 to 100 nM
C=CC(=O)Nc1cccc(Oc2nc(Nc3ccc(NC4CCN(C)CC4)c(F)c3)nc3ccoc23)c1 | ≤ 50 nM | ≤ 50 nM
C=CC(=O)Nc1cccc(Oc2nc(Nc3ccc(N4CCN(S(=O)(=O)CC)CC4)cc3)nc3ccsc23)c1 | ≤ 50 nM | 50 to 100 nM
C=CC(=O)Nc1cccc(Oc2nc(Nc3ccc(CCS(C)(=O)=O)cc3)nc3ccsc23)c1 | 50 to 100 nM | ≤ 50 nM

SMILES | GI50 [1] | GI50 [2]
C=CC(=O)Nc1cccc(Oc2nc(Nc3ccc(C4CCCN(C)C4)cc3)nc3ccsc23)c1 (centres undefined) | ≤ 50 nM | ≤ 50 nM
C=CC(=O)Nc1cccc(Oc2nc(Nc3ccc(N4CCC(N(C)C)CC4)cc3)nc3ccsc23)c1 | ≤ 50 nM | ≤ 50 nM
C=CC(=O)Nc1cccc(Oc2nc(Nc3ccc(OCCN(C)C)cc3)nc3ccsc23)c1 | ≤ 50 nM | ≤ 50 nM
C=CC(=O)Nc1cccc(Sc2nc(Nc3ccc(C4CCN(C)CC4)c(F)c3)nc3ccsc23)c1 | ≤ 50 nM | ≤ 50 nM
C=CC(=O)Nc1cccc(Oc2nc(Nc3ccc(N4CCN(CC)CC4)cc3OC)nc3ccsc23)c1 | ≤ 50 nM | ≤ 50 nM
C=CC(=O)Nc1cccc(Oc2nc(Nc3ccc(CN4CCOCC4)cc3)nc3ccsc23)c1 | 50 to 100 nM | ≤ 50 nM
C=CC(=O)Nc1cccc(Oc2nc(Nc3ccc(OCCN4CCN(C)CC4)c(F)c3)nc3ccsc23)c1 | ≤ 50 nM | ≤ 50 nM
C=CC(=O)Nc1cccc(Oc2nc(Nc3ccc(N4CCN(C5CCN(C)CC5)CC4)nc3)nc3ccsc23)c1 | ≤ 50 nM | ≤ 50 nM
C=CC(=O)Nc1cccc(Oc2nc(Nc3ccc(CN4CCN(C5CCN(C)CC5)CC4)c(Cl)c3)nc3ccsc23)c1 | 50 to 100 nM | ≤ 50 nM
C=CC(=O)Nc1cccc(Oc2nc(Nc3ccc(S(=O)(=O)N4CCN(CC)CC4)cc3)nc3ccsc23)c1 | ≤ 50 nM | 50 to 100 nM
C=CC(=O)Nc1cccc(Nc2nc(Nc3ccc(CCN4CCN(C)CC4)cc3)nc3ccsc23)c1 | 50 to 100 nM | ≤ 50 nM
C=CC(=O)Nc1cccc(Oc2nc(Nc3ccc(CN4CCN(CC)CC4)cc3)nc3ccsc23)c1 | ≤ 50 nM | ≤ 50 nM
C=CC(=O)Nc1cccc(Oc2nc(Nc3ccc(CCN4CCCCC4)cc3)nc3ccsc23)c1 | ≤ 50 nM | ≤ 50 nM
C=CC(=O)Nc1cccc(Oc2nc(Nc3ccc(N4CCC(N5CCCCC5)CC4)c(F)c3)nc3ccsc23)c1 | ≤ 50 nM | ≤ 50 nM
C=CC(=O)Nc1cccc(Nc2nc(Nc3ccc(NC4CCN(C)CC4)c(F)c3)nc3ccsc23)c1 | ≤ 50 nM | 50 to 100 nM
C=CC(=O)Nc1cccc(Oc2nc(Nc3ccc(N4CCN(CCO)CC4)cc3)nc3ccsc23)c1 | ≤ 50 nM | ≤ 50 nM
C=CC(=O)Nc1cccc(Oc2nc(Nc3ccc(N4CCN(C)CC4)c(F)c3OC)nc3ccsc23)c1 | 50 to 100 nM | ≤ 50 nM
C=CC(=O)Nc1cccc(Oc2nc(Nc3ccc(C4CCN(C)CC4)c(F)c3)nc3ccoc23)c1 | ≤ 50 nM | ≤ 50 nM
C=CC(=O)Nc1cccc(Oc2nc(Nc3ccc(N4CCOCC4)cc3)nc3ccsc23)c1 | 50 to 100 nM | ≤ 50 nM
C=CC(=O)Nc1cccc(Oc2nc(Nc3ccc4c(ccn4C)c3)nc3ccsc23)c1 | 50 to 100 nM | ≤ 50 nM
C=CC(=O)Nc1cccc(Nc2nc(Nc3ccc(OCCN(C)C)cc3)nc3ccsc23)c1 | ≤ 50 nM | ≤ 50 nM
C=CC(=O)Nc1cccc(Oc2nc(Nc3ccc(C(=O)NC4CCN(C)CC4)c(OC)c3)nc3ccsc23)c1 | ≤ 50 nM | 50 to 100 nM
C=CC(=O)Nc1cccc(Oc2nc(Nc3ccc(C4CCN(C)CC4)c(Cl)c3)nc3ccsc23)c1 | 50 to 100 nM | 50 to 100 nM
C=CC(=O)Nc1cccc(Oc2nc(Nc3ccc(N4CCN(C)CC4)cc3)nc3ccsc23)c1 | ≤ 50 nM | ≤ 50 nM

Continued, in another order:

GI50 [1] | SMILES | GI50 [2]
50 to 100 nM | C=CC(=O)Nc1cccc(Oc2nc(Nc3ccc4c(c3)CCCC(=O)N4C)nc3ccsc23)c1 | 50 to 100 nM
≤ 50 nM | C=CC(=O)Nc1cccc(Oc2nc(Nc3ccc(CN4CCN(C)CC4)c(F)c3)nc3ccsc23)c1 | ≤ 50 nM
≤ 50 nM | C=CC(=O)Nc1cccc(Nc2nc(Nc3ccc(N4CCN(C(C)C)CC4)cc3)nc3ccsc23)c1 | ≤ 50 nM
≤ 50 nM | C=CC(=O)Nc1cccc(Oc2nc(Nc3ccc(C(=O)N4CCN(CC)CC4)c(Cl)c3)nc3ccsc23)c1 | ≤ 50 nM
≤ 50 nM | C=CC(=O)Nc1cccc(Oc2nc(Nc3ccc(NC4CCN(C(C)C)CC4)c(F)c3)nc3ccsc23)c1 | ≤ 50 nM
50 to 100 nM | C=CC(=O)Nc1cccc(Oc2nc(Nc3ccc(N4CC5CC4CN5C)cc3)nc3ccsc23)c1 (centres undefined) | ≤ 50 nM
≤ 50 nM | C=CC(=O)Nc1cccc(Oc2nc(Nc3ccc(CN4CCCC4)cc3)nc3ccsc23)c1 | ≤ 50 nM
50 to 100 nM | C=CC(=O)Nc1cccc(Oc2nc(Nc3ccc(NC(=O)N4CCN(C)CC4)cc3)nc3ccsc23)c1 | ≤ 50 nM
≤ 50 nM | C=CC(=O)Nc1cccc(Oc2nc(Nc3ccc(N4CCN(C5CCN(C)CC5)CC4)cc3)nc3ccsc23)c1 | ≤ 50 nM
50 to 100 nM | C=CC(=O)Nc1cccc(Oc2nc(Nc3ccc(C(=O)N(C)C)c(Cl)c3)nc3ccsc23)c1 | ≤ 50 nM
≤ 50 nM | C=CC(=O)Nc1cccc(Nc2nc(Nc3ccc(C4CCCN(C)C4)cc3)nc3ccsc23)c1 (centres undefined) | ≤ 50 nM
≤ 50 nM | C=CC(=O)Nc1cccc(Oc2nc(Nc3ccc(NCCN(C)C)cc3)nc3ccsc23)c1 | 100 to 1000 nM
≤ 50 nM | C=CC(=O)Nc1cccc(Oc2nc(Nc3ccc(OC4CCN(CC)CC4)cc3)nc3ccsc23)c1 | ≤ 50 nM
≤ 50 nM | C=CC(=O)Nc1cccc(Oc2nc(Nc3ccc(S(=O)(=O)NCCN(C)C)cc3)nc3ccsc23)c1 | ≤ 50 nM
≤ 50 nM | C=CC(=O)Nc1cccc(Oc2nc(Nc3ccc(OCCN(CC)CC)c(F)c3)nc3ccsc23)c1 | ≤ 50 nM
≤ 50 nM | C=CC(=O)Nc1cccc(Oc2nc(Nc3ccc(C[S+](C)[O-])cc3)nc3ccsc23)c1 (centres undefined) | ≤ 50 nM
≤ 50 nM | C=CC(=O)Nc1cccc(Oc2nc(Nc3ccc(C(=O)N4CCN(CC)CC4)cc3)nc3ccsc23)c1 | ≤ 50 nM
≤ 50 nM | C=CC(=O)Nc1cccc(Oc2nc(Nc3ccc(N4CCNCC4)c(Cl)c3)nc3ccsc23)c1 | ≤ 50 nM
≤ 50 nM | C=CC(=O)Nc1cccc(Oc2nc(Nc3ccc(C4CCN(CC)CC4)cc3)nc3ccsc23)c1 | ≤ 50 nM
50 to 100 nM | C=CC(=O)Nc1cccc(Oc2nc(Nc3ccc(N4CCN(S(=O)(=O)N(C)C)CC4)cc3)nc3ccsc23)c1 | 50 to 100 nM
≤ 50 nM | C=CC(=O)Nc1cccc(Oc2nc(Nc3ccc(OCCN4CCOCC4)c(OC)c3)nc3ccsc23)c1 | ≤ 50 nM
≤ 50 nM | C=CC(=O)Nc1cccc(Oc2nc(Nc3ccc(N4CCC(CO)CC4)cc3)nc3ccsc23)c1 | 50 to 100 nM
≤ 50 nM | C=CC(=O)Nc1cccc(Oc2nc(Nc3ccc(N4CCC(C(=O)N(C)C)CC4)cc3)nc3ccsc23)c1 | ≤ 50 nM
